Assay results as given in US20250295799A1, “ANTIBODY-DRUG CONJUGATES TARGETING GLYPICAN-3 AND METHODS OF USE” (Zymeworks BC Inc., priority 2022, published 2025).

What was measured:
[1] = target: T1, human GPC3 on transfected CHO-S cells (Homo sapiens, UniProt P51654); test: Binding to transfected CHO-S cells by flow cytometry; conditions: 24 h at 4 °C
T1 construct: expressed in transfected cells; host or cells: CHO-S cells, transient transfection (Neon system)
Method: (§1) Following transfection, cells were seeded at 50,000 cells/well in V-bottom 96-well plates and treated with antibody for 24 hours at 4° C. to prevent internalization. […] Following incubation and washing, fluorescence was detected by flow cytometry on a BD LSRFortessa™ Cell Analyzer (BD Biosciences, Franklin Lake, NJ) with 1,000 minimum events collected per well.
as §1

JHH-5 cells (GPC3-mid) = test: On-cell binding by flow cytometry
Method: (§2) Briefly, cells were seeded at 50,000 cells/well in V-bottom 96-well plates and treated with antibody for 24 hours at 4° C. to prevent internalization. […] Following incubation and washing, fluorescence was detected by flow cytometry on a BD LSRFortessa™ Cell Analyzer (BD Biosciences, Franklin Lake, NJ) with 1,000 minimum events collected per well. AF647/APC-A GeoMean (fluorescence signal geometric mean, proportional to anti-Human AF647 binding) in live cell population was plotted against antibody concentration using GraphPad Prism Version 9 (GraphPad Software, San Diego, CA). The Bmax, Curve Hill Slope (h) and Kd values were derived from the “Specific binding with Hill slope” nonlinear regression curve fit in GraphPad Prism Version 9.
(§3) The on-cell binding capabilities of light chain (LC)-modified M3-H18L6 antibody constructs were assessed on JHH-7 (hepatocellular carcinoma; GPC3-high) and JHH-5 (hepatocellular carcinoma; GPC3-mid) by flow cytometry as described below. […] The assay was carried out as described in Example 13.
(§4) Briefly, plasma stress was carried out by incubating M3-H18L6 LC-modified antibodies in mouse plasma (BioIVT, Westbury, NY; Cat. No. MSE00PL38NC-0103070) for 14 days in a 37° C./5% CO2 incubator. […] Following incubation and washing, fluorescence was detected by flow cytometry on a BD LSRFortessa™ Cell Analyzer (BD Biosciences, Franklin Lake, NJ) with 1,000 minimum events collected per well. AF647/APC-A GeoMean (fluorescence signal geometric mean, proportional to anti-Human AF647 binding) in live cell population was plotted against antibody concentration using GraphPad Prism Version 9 (GraphPad Software, San Diego, CA). […] Following incubation, cells were dissociated, washed, and surface AF488 fluorescence was quenched using an anti-AF488 antibody (Life Technologies, Carlsbad, CA; Cat. No. A-11094) at 100 nM for 30 minutes at 4° C. Quenched AF488 fluorescence (internalized fluorescence) was detected by flow cytometry on a BD LSRFortessa™ Cell Analyzer (BD Biosciences, Franklin Lake, NJ) with 1,000 minimum events collected per well.

JHH-7 cells (GPC3-high) = test: On-cell binding by flow cytometry; conditions: flow cytometry
Method: as §2, §3, §4

palivizumab
did not exhibit any binding: binding to CHO-S cells expressing human GPC3, in words [1] | binding to JHH-5 cells, in words (JHH-5 cells (GPC3-mid)) | binding to JHH-7 cells, in words (JHH-7 cells (GPC3-high))
